≈ marks a conversion by molar mass, not a printed value. Where two headings read alike, the source gives them in different places.
Columns and labels:
Test in all cases: In vitro antimicrobial activity, MIC by broth microdilution (CLSI)
Format in all cases: cell-based
[1] = system: A. baumannii JMI2346; conditions: for MIC: Acinetobacter baumannii
Summary of the method: (§1)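 MIC (μg/mL) by CLSI broth microdilution, inoculum 5×10^5 cfu/mL, in cation-adjusted Iso-Sensitest broth containing human apo-transferrin.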

[2] = system: A. baumannii JMI7; conditions: for MIC: Acinetobacter baumannii
Summary of the method: as §1

[3] = system: E. Coli JMI1890; conditions: for MIC: Escherichia coli, read-out: Minimum Inhibitory Concentration (MIC) E. Coli JMI:1890
Summary of the method: as §1

[4] = system: K. pneumoniae SR01358; conditions: for MIC: Klebsiella pneumoniae
Summary of the method: as §1

[5] = JMI2346, OXA-51, TEM, ESBL and OXA-type carbapenemase producing strain, 5×10^5 cfu/mL, cation-adjusted Iso-Sensitest broth containing human Apo-transferrin, read-out: Minimum Inhibitory Concentration (MIC) A. baumannii JMI:2346
[6] = JMI7, PER-1, OXA-23, 51, ESBL and OXA-type carbapenemase producing strain, 5×10^5 cfu/mL, cation-adjusted Iso-Sensitest broth containing human Apo-transferrin, read-out: Minimum Inhibitory Concentration (MIC) A. baumannii JMI:7
[7] = PER-1, TEM-1, ESBL producing strain, 5×10^5 cfu/mL, cation-adjusted Iso-Sensitest broth containing human Apo-transferrin
[8] = SR01358, KPC-2, ESBL and KPC-type carbapenemase producing strain, 5×10^5 cfu/mL, cation-adjusted Iso-Sensitest broth containing human Apo-transferrin, read-out: Minimum Inhibitory Concentration (MIC) K. pneumoniae SR01358
[9] = OXA-51, TEM, ESBL and OXA-type carbapenemase producing strain, 5×10^5 cfu/mL, cation-adjusted Iso-Sensitest broth containing human Apo-transferrin
[10] = PER-1, OXA-23, 51, ESBL and OXA-type carbapenemase producing strain, 5×10^5 cfu/mL, cation-adjusted Iso-Sensitest broth containing human Apo-transferrin
[11] = KPC-2, ESBL and KPC-type carbapenemase producing strain, 5×10^5 cfu/mL, cation-adjusted Iso-Sensitest broth containing human Apo-transferrin

Compound | MIC [1, 5] [µg/mL] | MIC [2, 6] [µg/mL] | MIC [3, 7] [µg/mL] | MIC [4, 8] [µg/mL] | further results
C[C@@H]1S[C@@H]2[C@H](NC(=O)/C(=N\OC(C)(C)C(=O)[O-])c3csc(N)n3)C(=O)N2C(C(=O)[O-])=C1C[N+]12CCC(CN3C(=O)c4cc(O)c(O)cc4C3=O)(CC1)C2.[Na+] [Compound I-116] | 1 | 0.25 | ≤ 0.031 | ≤ 0.031 | –
C[C@@H]1S[C@@H]2[C@H](NC(=O)/C(=N\OC(C)(C)C(=O)[O-])c3csc(N)n3)C(=O)N2C(C(=O)[O-])=C1C[N+]12CCC(CNC(=O)c3cc(O)c(O)c(F)c3)(CC1)C2.[Na+] [Compound I-117] | 1 | 0.5 | ≤ 0.031 | 0.25 | –
C[C@@H]1S[C@@H]2[C@H](NC(=O)/C(=N\OC(C)(C)C(=O)[O-])c3csc(N)n3)C(=O)N2C(C(=O)[O-])=C1C[N+]12CCCC(CNC(=O)c3ccc(O)c(O)c3Cl)(CCC1)C2.[Na+] [Compound I-118] | 0.5 | 0.25 | ≤ 0.031 | 0.063 | –
C[C@@H]1S[C@@H]2[C@H](NC(=O)/C(=N\OC(C)(C)C(=O)[O-])c3csc(N)n3)C(=O)N2C(C(=O)O)=C1C[N@+]1(C)[C@@H]2CC[C@H]1C[C@@H](NC(=O)c1cn(C3CC3)c3cc(O)c(O)c(Cl)c3c1=O)C2 [Compound I-120] | 2 (≈ 2.22 µM) | 0.5 (≈ 0.556 µM) | 0.063 (≈ 0.07 µM) | ≤ 0.031 | –
CCn1cc(C(=O)N[C@H]2C[C@H]3CC[C@@H](C2)[N@+]3(C)CC2=C(C(=O)O)N3C(=O)[C@@H](NC(=O)/C(=N\OC(C)(C)C(=O)[O-])c4csc(N)n4)[C@H]3S[C@H]2C)c(=O)c2c(Cl)c(O)c(O)cc21 [Compound I-121] | 2 (≈ 2.25 µM) | 0.5 (≈ 0.563 µM) | 0.063 (≈ 0.071 µM) | ≤ 0.031 | –
C[C@@H]1S[C@@H]2[C@H](NC(=O)/C(=N\OC(C)(C)C(=O)[O-])c3csc(N)n3)C(=O)N2C(C(=O)O)=C1C[N+]12CCC(Cn3[nH]c(=O)c4cc(O)c(O)cc4c3=O)(CC1)CC2 [Compound I-122] | 2 (≈ 2.5 µM) | 0.5 (≈ 0.626 µM) | 0.25 (≈ 0.313 µM) | ≤ 0.031 | –
C[C@@H]1S[C@@H]2[C@H](NC(=O)/C(=N\OC(C)(C)C(=O)[O-])c3csc(N)n3)C(=O)N2C(C(=O)O)=C1C[N+]12CCC(CNN3C(=O)c4cc(O)c(O)cc4C3=O)(CC1)CC2 [Compound I-123] | 4 (≈ 5.01 µM) | 0.5 (≈ 0.626 µM) | 0.125 (≈ 0.156 µM) | ≤ 0.031 | –
C[C@@H]1S[C@@H]2[C@H](NC(=O)/C(=N\OC(C)(C)C(=O)O)c3csc(N)n3)C(=O)N2C(C(=O)[O-])=C1C[N+]12CCC(Cn3ncc4cc(O)c(O)cc4c3=O)(CC1)CC2 [Compound I-124] | 2 (≈ 2.55 µM) | 0.5 (≈ 0.639 µM) | 0.125 (≈ 0.16 µM) | ≤ 0.031 | –
C[C@@H]1S[C@@H]2[C@H](NC(=O)/C(=N\OC(C)(C)C(=O)O)c3csc(N)n3)C(=O)N2C(C(=O)[O-])=C1C[N+]12CCC(Cn3ncc4cc(O)c(O)c(Cl)c4c3=O)(CC1)CC2 [Compound I-125] | 8 (≈ 9.79 µM) | 0.5 (≈ 0.612 µM) | 0.125 (≈ 0.153 µM) | ≤ 0.031 | –
C[C@@H]1S[C@@H]2[C@H](NC(=O)/C(=N\OC(C)(C)C(=O)O)c3csc(N)n3)C(=O)N2C(C(=O)[O-])=C1C[N+]12CCC(Cn3ncc4cc(O)c(O)cc4c3=O)(CC1)C2 [Compound I-126] | 0.5 (≈ 0.65 µM) | 0.25 (≈ 0.325 µM) | 0.063 (≈ 0.0819 µM) | ≤ 0.031 | –
CO/N=C(\C(=O)NCC12CC[N+](CC3=C(COO)N4C(=O)[C@@H](NC(=O)/C(=N\OC(C)(C)C(=O)[O-])c5csc(N)n5)[C@H]4S[C@H]3C)(CC1)CC2)c1cc(O)c(O)c(Cl)c1 [Compound I-131] | – | – | – | – | Minimum Inhibitory Concentration (MIC) A. baumannii JMI:2346 [1, 9]: 2 µg/mL; Minimum Inhibitory Concentration (MIC) A. baumannii JMI:7 [2, 10]: 2 µg/mL; Minimum Inhibitory Concentration (MIC) E. Coli JMI:1890 [3, 7]: 0.125 µg/mL; Minimum Inhibitory Concentration (MIC) K. pneumoniae SR01358 [4, 11]: 0.063 µg/mL
CO/N=C(\C(=O)NCC12CC[N+](CC3=C(COO)N4C(=O)[C@@H](NC(=O)/C(=N\OC(C)(C)C(=O)[O-])c5csc(N)n5)[C@H]4S[C@H]3C)(CC1)CC2)c1cc(O)c(O)c(F)c1 [Compound I-132] | – | – | – | – | Minimum Inhibitory Concentration (MIC) A. baumannii JMI:2346 [1, 9]: 4 µg/mL; Minimum Inhibitory Concentration (MIC) A. baumannii JMI:7 [2, 10]: 1 µg/mL; Minimum Inhibitory Concentration (MIC) E. Coli JMI:1890 [3, 7]: 0.25 µg/mL; Minimum Inhibitory Concentration (MIC) K. pneumoniae SR01358 [4, 11]: ≤0.031 µg/mL
C[C@@H]1S[C@@H]2[C@H](NC(=O)/C(=N\OC(C)(C)C(=O)[O-])c3csc(N)n3)C(=O)N2C(C(=O)O)=C1C[N+]12CCC(CNC(=O)/C(=N\O)c3cc(O)c(O)c(F)c3)(CC1)CC2 [Compound I-136] | 2 (≈ 2.44 µM) | 1 (≈ 1.22 µM) | 0.5 (≈ 0.611 µM) | ≤ 0.031 | –
C[C@@H]1S[C@@H]2[C@H](NC(=O)/C(=N\OC(C)(C)C(=O)[O-])c3csc(N)n3)C(=O)N2C(C(=O)O)=C1C[N+]12CCC(CC1)N(C(=O)/C(=N\O)c1ccc(O)c(O)c1Cl)CC2 [Compound I-137] | 2 (≈ 2.44 µM) | 0.5 (≈ 0.609 µM) | 0.25 (≈ 0.304 µM) | ≤ 0.031 | –
C[C@@H]1S[C@@H]2[C@H](NC(=O)/C(=N\OC(C)(C)C(=O)[O-])c3csc(N)n3)C(=O)N2C(C(=O)O)=C1C[N+]12CCC(CC1)N(C(=O)C(=NO)c1cc(O)c(O)c(Cl)c1)CC2 [Compound I-138] | – | – | – | – | MIC ([1]; JMI2346, read-out: Minimum Inhibitory Concentration (MIC) A. baumannii JMI:2346): 4 µg/mL (≈ 4.87 µM); MIC ([2]; JMI7, read-out: Minimum Inhibitory Concentration (MIC) A. baumannii JMI:7): 0.5 µg/mL (≈ 0.609 µM); MIC [3]: 0.25 µg/mL (≈ 0.304 µM); MIC ([4]; SR01358, read-out: Minimum Inhibitory Concentration (MIC) K. pneumoniae SR01358): ≤ 0.031 µg/mL
C[C@@H]1S[C@@H]2[C@H](NC(=O)/C(=N\OC(C)(C)C(=O)[O-])c3csc(N)n3)C(=O)N2C(C(=O)O)=C1C[N+]12CCC(CNC(=O)c3cc(O)c(O)c(Cl)c3)(CC1)C2 [Compound I-142] | 2 (≈ 2.57 µM) | 0.5 (≈ 0.642 µM) | 0.25 (≈ 0.321 µM) | ≤ 0.031 | –
C[C@@H]1S[C@@H]2[C@H](NC(=O)/C(=N\OC(C)(C)C(=O)O)c3csc(N)n3)C(=O)N2C(C(=O)[O-])=C1C[N+]12CCC(Cn3cnc4cc(O)c(O)cc4c3=O)(CC1)CC2 [Compound I-150, (4S,6R,7R)-7-((Z)-2-(2-aminothiazol-4-yl)-2-(((2-carboxypropan-2-yl)oxy)imino)acetamido)-3-((4-((6,7-dihydroxy-4-oxoquinazolin-3(4H)-yl)methyl)quinuclidin-1-ium-1-yl)methyl)-4-methyl-8-oxo-5-thia-1-azabicyclo[4.2.0]oct-2-ene-2-carboxylate] | 2 (≈ 2.55 µM) | 0.5 (≈ 0.639 µM) | 2 (≈ 2.55 µM) | ≤ 0.031 | –
C[C@@H]1S[C@@H]2[C@H](NC(=O)/C(=N\OC(C)(C)C(=O)O)c3csc(N)n3)C(=O)N2C(C(=O)[O-])=C1C[N+]12CCC(CC1)N(C(=O)c1cn(C)c3cc(O)c(O)c(Cl)c3c1=O)CC2 [Compound I-160, (4S,6R,7R)-7-((Z)-2-(2-aminothiazol-4-yl)-2-(((2-carboxypropan-2-yl)oxy)imino)acetamido)-3-((4-(5-chloro-6,7-dihydroxy-1-methyl-4-oxo-1,4-dihydroquinoline-3-carbonyl)-1,4-diazabicyclo[3.2.2]nonan-1-ium-1-yl)methyl)-4-methyl-8-oxo-5-thia-1-azabicyclo[4.2.0]oct-2-ene-2-carboxylate] | 0.5 (≈ 0.582 µM) | 0.25 (≈ 0.291 µM) | ≤ 0.031 | 0.063 (≈ 0.0733 µM) | –
C[C@@H]1S[C@@H]2[C@H](NC(=O)/C(=N\OC(C)(C)C(=O)O)c3csc(N)n3)C(=O)N2C(C(=O)[O-])=C1C[N+]12CCC(Cn3cnc4cc(O)c(O)c(Cl)c4c3=O)(CC1)CC2 [Compound I-161, (4S,6R,7R)-7-((Z)-2-(2-aminothiazol-4-yl)-2-(((2-carboxypropan-2-yl)oxy)imino)acetamido)-3-((4-((5-chloro-6,7-dihydroxy-4-oxoquinazolin-3(4H)-yl)methyl)quinuclidin-1-ium-1-yl)methyl)-4-methyl-8-oxo-5-thia-1-azabicyclo[4.2.0]oct-2-ene-2-carboxylate] | 4 (≈ 4.89 µM) | 0.25 (≈ 0.306 µM) | 0.125 (≈ 0.153 µM) | ≤ 0.031 | –
